Measurements reported in patent publication US20040043980A1, “Stable compositions of oxapenem-3-carboxylic acids by co-lyophilisation with pharmaceutical carriers” (priority 2000, published 2004).

Tests used:
Conditions in all cases: 42 days
[1] = Shelf stability: content determined by UV spectroscopy in water at 262 nm; type: physicochemical; parameters: unit not given here
Description: (§1) Several samples in glass ampoules were kept without and over drying agents for 42 days in the dark at room temperature. The content of (5R,6R,1′R)-3-(4-amino-1,1-dimethylbutyl)-6-(1′-hydroxyethyl)-7-oxo-4-1-azabicyclo[3.2.0]hept-2-ene-2-carboxylic acid was determined by UV spectroscopy in water at λmax=262 nm (ε=5000) and by plate bioassay. The appearance of the lyophilized powder and the solubility behaviour in water were also recorded.

[2] = test system: Escherichia coli; assay: Shelf stability: content by plate bioassay; type: cell-based; parameters: unit not given here
Description: as §1, with “Several samples in glass ampoules were kept without and over drying agents for 42 days in the dark at room temperature.” left out
The plate bioassays were carried out in sterile polystyrene dishes of 8.5 cm diameter with 10 ml of sterile Difco Nutrient Agar using Escherichia coli (inocculum ca. 10 000 cells). The inhibition diameters were compared with those obtained with 30, 25, 20, 15, 10 and 5 μg of pure title compound on a separate dish and the amount of active material calculated.

[3] = Shelf stability: appearance of the lyophilized powder; type: physicochemical
Description: as §1

[4] = R.T., vacuum, drying agent P2O5

C[C@@H](O)[C@H]1C(=O)N2C(C(=O)O)=C(C(C)(C)CCCN)O[C@H]12 [neat, (5R,6R,1′R)-3-(4-amino-1,1-dimethylbutyl)-6-(1′-hydroxyethyl)-7-oxo-4-oxa-1-azabicyclo[3.2.0]hept-2-ene-2-carboxylic acid]
content by UV method ([1]; R.T., drying agent SiO2): 82
content by UV method ([1]; R.T., drying agent none): 67
content by UV method [1, 4]: 76
content by UV method ([1]; −80° C., drying agent none): 100
content by bioassay ([2]; R.T., drying agent SiO2): 66
content by bioassay ([2]; R.T., drying agent none): 40
content by bioassay [2, 4]: 83
content by bioassay ([2]; −80° C., drying agent none): 100
appearance ([3]; R.T., drying agent SiO2): yellow
appearance ([3]; R.T., drying agent none): yellow
appearance [3, 4]: yellow
appearance ([3]; −80° C., drying agent none): white
